For data set [1], the system named is subjects with Huntington's disease. Description: 48-day daily oral treatment, subject diagnosed with Huntington's disease. Format: in vivo. The conditions noted are these: 1 subject with Huntington's disease, 48-day treatment, 30 mg of each active. The procedure:
(§1) In a 48-day treatment, 50 subjects suffering from diverse medical conditions receive a daily oral dose with either • pure psilocybin (30 mg); • pure cannabidiol (30 mg); or • combined treatment of pure psilocybin (30 mg)+pure cannabidiol (30 mg).

The subject of data set [2] is subjects with Alzheimer's disease. Description: 48-day daily oral treatment, subjects diagnosed with Alzheimer's disease. The conditions noted are these: 10 subjects with Alzheimer's disease, 48-day treatment, 30 mg of each active. Format: in vivo. The procedure:
as §1

Data set [3] deals with subjects with Schizophrenia. In words: 48-day daily oral treatment, subjects diagnosed with schizophrenia. Type of data set: in vivo. The conditions noted are these: 2 subjects with schizophrenia, 48-day treatment, 30 mg of each active, decrease. The protocol: as §1
A further data set concerns subjects with Depression. Description: 48-day daily oral treatment, subjects diagnosed with depression. Format: in vivo. The conditions noted are these: 14 subjects with depression, 48-day treatment, 30 mg of each active. The procedure:
as §1

Data set [4] deals with subjects with Anxiety disorder. In words: 48-day daily oral treatment, subjects diagnosed with anxiety disorder. Type of data set: in vivo. The conditions noted are these: 4 subjects with anxiety disorder; 48-day treatment, daily oral dose 30 mg; increase. The procedure: as §1
Data set [5] deals with subjects with Parkinson's disease. In words: 48-day daily oral treatment, subjects diagnosed with Parkinson's disease. Type of data set: in vivo. The conditions noted are these: 4 subjects with Parkinson's disease, 48-day treatment, 30 mg of each active. The procedure:
as §1

Data set [6] deals with subjects with Psychotic disorder. Description: 48-day daily oral treatment, subjects diagnosed with psychotic disorder. The conditions noted are these: 3 subjects with psychotic disorder; 48-day treatment, daily oral dose 30 mg; increase. Type of data set: in vivo. The protocol: as §1
In a further data set the test system is subjects with Dementia. In words: 48-day daily oral treatment, subjects diagnosed with dementia. Type of data set: in vivo. The conditions noted are these: 10 subjects with dementia, 48-day treatment, 30 mg of each active. The procedure: as §1
The test system of data set [7] is subjects with Panic disorder. In words: 48-day daily oral treatment, subjects diagnosed with panic disorder. Format: in vivo. The conditions noted are these: 2 subjects with panic disorder; 48-day treatment, daily oral dose 30 mg; increase. The procedure:
as §1

The conditions of data set [8]: general statement in description; cited from earlier work.

Structures are written as SMILES.

The text below walks through data of patent US10729706B2, “Psilocybin and/or psilocin in combination with cannabinoids and/or terpenes” (Procare Beheer B.V., priority 2017, dated 2020).

Take `C=C(C)[C@@H]1CCC(C)=C[C@H]1c1c(O)cc(CCCCC)cc1O` [cannabidiol]: in [1], the “progression of movement, cognitive, and psychiatric disorders during treatment” value is recorded as “normal progression”. Also, the “progression of disease symptoms during treatment” value (in data set [2]; with subjects with Dementia) was “normal progression” throughout. Besides, the “decreased occurrence of schizophrenic episodes during period of treatment, on average” value in [3] was “on average, 50%”. In addition, the “subjects report improved mood after period of treatment” value with subjects with Depression worked out at 5 subjects report. Further, the “increased occurrence of anxiety attacks during period of treatment, on average” value in data set [4] was “on average, 40%”. For the same compound, the “progression of movement disorders during treatment” value in data set [5] is “normal progression”. Further, in data set [6], the “increased occurrence of psychotic episodes during period of treatment, on average” value is reported as “on average, 10%”. In [7], the “Increased occurrence of panic attacks during period of treatment, on average” value is reported as “on average, 40%”.
Regarding `CN(C)CCc1c[nH]c2cccc(OP(=O)(O)O)c12` [psilocybin, [3-(2-dimethylaminoethyl)-1H-indol-4-yl] dihydrogen phosphate], the “decreased occurrence of schizophrenic episodes during period of treatment, on average” value in [3] was “on average, 0%”. Moreover, the “subjects report improved mood after period of treatment” value with subjects with Depression was determined as 6 subjects report. In addition, in [4], the “increased occurrence of anxiety attacks during period of treatment, on average” value is “on average, 50%”. In addition, the “increased occurrence of psychotic episodes during period of treatment, on average” value in data set [6] is reported as “on average, 20%”. Further, in data set [8], the toxicity result is reported as “low toxicity”. In [7], the “Increased occurrence of panic attacks during period of treatment, on average” value is reported as “on average, 50%”.
